# Assay results taken from PubChem BioAssay AID256 (DTP/NCI, 2004).
# Where “and” joins values, the source holds several entries; their conditions need not be identical. Equal entries are not always repeated. Toxic doses and inconclusive results are not listed.
# Test system: CD2F1 mice, L1210 leukemia ip, survival T/C
# Experiment: NCI In Vivo Anticancer Drug Screen. Data for tumor model L1210 Leukemia (intraperitoneal) in CD2F1 (CDF1) mice
# Settings: higher = longer survival
# Outline: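 Read-out first: treated-group measurement over vehicle-control measurement, expressed as a ratio. Animals bore a transplanted tumor line and were dosed with compound or vehicle.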
# [1] = endpoint: mean survival time, dose: 100.0 mg/kg/injection, schedule: Q04DX003 (ip), vehicle: saline
# [2] = endpoint: mean survival time, dose: 200.0 mg/kg/injection, schedule: Q04DX003 (ip), vehicle: saline
# [3] = endpoint: mean survival time, dose: 400.0 mg/kg/injection, schedule: Q04DX003 (ip), vehicle: saline
# [4] = endpoint: mean survival time, dose: 100.0 mg/kg/injection, schedule: Q01DX001 (ip), vehicle: saline
# [5] = endpoint: mean survival time, dose: 200.0 mg/kg/injection, schedule: Q01DX001 (ip), vehicle: saline
# [6] = endpoint: mean survival time, dose: 100.0 mg/kg/injection, schedule: Q04DX003 (ip), vehicle: saline with Tween-80
# [7] = endpoint: mean survival time, dose: 200.0 mg/kg/injection, schedule: Q04DX003 (ip), vehicle: saline with Tween-80
# [8] = endpoint: mean survival time, dose: 400.0 mg/kg/injection, schedule: Q04DX003 (ip), vehicle: saline with Tween-80
# [9] = endpoint: mean survival time, dose: 100.0 mg/kg/injection, schedule: Q01DX009 (ip), vehicle: saline with Tween-80
# [10] = endpoint: mean survival time, dose: 100.0 mg/kg/injection, schedule: Q01DX001 (ip), vehicle: saline with Tween-80
# [11] = endpoint: mean survival time, dose: 200.0 mg/kg/injection, schedule: Q01DX001 (ip), vehicle: saline with Tween-80
smiles,measurement,setting,value
O,T/C,"endpoint: mean survival time, dose: 75.0 mg/kg/injection, schedule: Q01DX001 (ip), vehicle: saline",96 % of control
same,T/C,"endpoint: mean survival time, dose: 100.0 mg/kg/injection, schedule: Q01DX009 (ip), vehicle: saline",88 % of control
same,T/C,"endpoint: mean survival time, dose: 200.0 mg/kg/injection, schedule: Q01DX009 (ip), vehicle: saline",100 % of control
same,T/C,"endpoint: mean survival time, dose: 400.0 mg/kg/injection, schedule: Q01DX009 (ip), vehicle: saline",96 % of control
Nc1nc(=S)c2[nH]c(-c3ccccc3)nc2[nH]1,T/C,"endpoint: mean survival time, dose: 12.5 mg/kg/injection, schedule: Q01DX005 (ip), vehicle: other",96 % of control
same,T/C,"endpoint: mean survival time, dose: 25.0 mg/kg/injection, schedule: Q01DX005 (ip), vehicle: other",90 % of control
same,T/C,"endpoint: mean survival time, dose: 50.0 mg/kg/injection, schedule: Q01DX005 (ip), vehicle: other",93 % of control
same,T/C,"endpoint: mean survival time, dose: 100.0 mg/kg/injection, schedule: Q01DX005 (ip), vehicle: other",93 % of control
same,T/C,"endpoint: mean survival time, dose: 200.0 mg/kg/injection, schedule: Q01DX005 (ip), vehicle: other",90 % of control
OCC1OC(O)C(F)C(O)C1O (stereo not drawn),T/C,"endpoint: mean survival time, dose: 50.0 mg/kg/injection, schedule: Q04DX003 (ip), vehicle: saline",108 % of control
same,T/C,[1],104 % of control
same,T/C,[2],101 % of control
same,T/C,[3],101 % of control
COC(=O)C(=O)c1ccccc1,T/C,[1],96 % of control
same,T/C,[2],102 % of control
same,T/C,[3],103 % of control
Clc1ccc2c(Cl)c3c(nc2c1)CCCC3,T/C,[4],100 % of control
same,T/C,[5],100 % of control
COC(=O)C1CC2C(CCC3C(C)(C(=O)OC)CCCC23C)C(=O)C1(O)C(C)C (stereo not drawn),T/C,[6],101 % of control
same,T/C,[7],105 % of control
same,T/C,[8],91 % of control
CCCCOC(=O)CC(=O)OCCCC,T/C,[9],102 % of control
same,T/C,[6],101 % of control
same,T/C,"endpoint: mean survival time, dose: 200.0 mg/kg/injection, schedule: Q01DX009 (ip), vehicle: saline with Tween-80",104 % of control
same,T/C,[7],93 % of control
same,T/C,"endpoint: mean survival time, dose: 400.0 mg/kg/injection, schedule: Q01DX009 (ip), vehicle: saline with Tween-80",96 % of control
same,T/C,[8],93 % of control
CC(C)(C)N1CC1,T/C,"endpoint: mean survival time, dose: 100.0 mg/kg/injection, schedule: Q04DX002 (ip), vehicle: saline with Tween-80",102 % of control
same,T/C,"endpoint: mean survival time, dose: 400.0 mg/kg/injection, schedule: Q04DX002 (ip), vehicle: saline with Tween-80",94 % of control
O=CC(CO)CC(C=O)n1cnc2c(=O)[nH]cnc21 (stereo not drawn),T/C,"endpoint: mean survival time, dose: 60.0 mg/kg/injection, schedule: Q01DX009 (ip), vehicle: saline",123 % of control
same,T/C,"endpoint: mean survival time, dose: 89.0 mg/kg/injection, schedule: Q01DX009 (ip), vehicle: saline",116 % of control
same,T/C,"endpoint: mean survival time, dose: 300.0 mg/kg/injection, schedule: Q01DX009 (ip), vehicle: saline",159 % of control
same,T/C,"endpoint: mean survival time, dose: 300.0 mg/kg/injection, schedule: Q04DX003 (ip), vehicle: saline",150 % of control
same,T/C,"endpoint: median survival time, dose: 37.5 mg/kg/injection, schedule: Q01DX009 (ip), vehicle: saline",113 % of control and 124 % of control
CCOC(=O)c1cc([N+](=O)[O-])c[nH]1,T/C,"endpoint: median survival time, dose: 25.0 mg/kg/injection, schedule: Q01DX009 (ip), vehicle: Klucel (hydroxypropylcellulose) (HPC)",101 % of control
same,T/C,"endpoint: median survival time, dose: 50.0 mg/kg/injection, schedule: Q01DX009 (ip), vehicle: Klucel (hydroxypropylcellulose) (HPC)",98 % of control
same,T/C,"endpoint: median survival time, dose: 100.0 mg/kg/injection, schedule: Q01DX009 (ip), vehicle: Klucel (hydroxypropylcellulose) (HPC)",97 % of control
same,T/C,"endpoint: median survival time, dose: 200.0 mg/kg/injection, schedule: Q01DX009 (ip), vehicle: Klucel (hydroxypropylcellulose) (HPC)",98 % of control
CCC(=O)NC1CCCCC1,T/C,[10],95 % of control
same,T/C,[11],101 % of control
same,T/C,"endpoint: mean survival time, dose: 400.0 mg/kg/injection, schedule: Q01DX001 (ip), vehicle: saline with Tween-80",102 % of control
N#C/C(=C\c1c(O)ccc2ccccc12)c1ccc([N+](=O)[O-])cc1,T/C,"endpoint: mean survival time, dose: 66.0 mg/kg/injection, schedule: Q01DX009 (ip), vehicle: saline with Tween-80",88 % of control
same,T/C,[9],91 % of control and 92 % of control
same,T/C,[6],91 % of control
same,T/C,"endpoint: mean survival time, dose: 150.0 mg/kg/injection, schedule: Q01DX009 (ip), vehicle: saline with Tween-80",100 % of control
same,T/C,[7],94 % of control
same,T/C,[8],91 % of control
OC12CC3CC(CC(C3)C1)C2,T/C,"endpoint: mean survival time, dose: 50.0 mg/kg/injection, schedule: Q01DX001 (ip), vehicle: saline with Tween-80",104 % of control
same,T/C,[10],116 % of control
same,T/C,[11],98 % of control
c1ccc(CCN2CCCCC2)nc1,T/C,"endpoint: mean survival time, dose: 3.13 mg/kg/injection, schedule: Q04DX003 (ip), vehicle: saline with Tween-80",93 % of control
same,T/C,"endpoint: mean survival time, dose: 6.25 mg/kg/injection, schedule: Q04DX003 (ip), vehicle: saline with Tween-80",93 % of control
O=C(O)c1ccc(C(=O)O)c(C(=O)O)c1.[NH-]C1CCCCC1[NH-].[Pd+2],T/C,"endpoint: mean survival time, dose: 9.36 mg/kg/injection, schedule: Q04DX003 (ip), vehicle: sodium bicarbonate",98 % of control
same,T/C,"endpoint: mean survival time, dose: 18.75 mg/kg/injection, schedule: Q04DX003 (ip), vehicle: sodium bicarbonate",101 % of control
same,T/C,"endpoint: mean survival time, dose: 75.0 mg/kg/injection, schedule: Q04DX003 (ip), vehicle: sodium bicarbonate",101 % of control
same,T/C,"endpoint: mean survival time, dose: 150.0 mg/kg/injection, schedule: Q04DX003 (ip), vehicle: sodium bicarbonate",101 % of control
CCOC(=O)CCCCCSc1nn(C2OC(CO)C(O)C2O)c(=O)[nH]c1=O (stereo not drawn),T/C,"endpoint: mean survival time, dose: 12.5 mg/kg/injection, schedule: Q01DX005 (ip), vehicle: distilled water + Tween-80",103 % of control
same,T/C,"endpoint: mean survival time, dose: 25.0 mg/kg/injection, schedule: Q01DX005 (ip), vehicle: distilled water + Tween-80",98 % of control
same,T/C,"endpoint: mean survival time, dose: 50.0 mg/kg/injection, schedule: Q01DX005 (ip), vehicle: distilled water + Tween-80",104 % of control
same,T/C,"endpoint: mean survival time, dose: 100.0 mg/kg/injection, schedule: Q01DX005 (ip), vehicle: distilled water + Tween-80",103 % of control
same,T/C,"endpoint: mean survival time, dose: 200.0 mg/kg/injection, schedule: Q01DX005 (ip), vehicle: distilled water + Tween-80",97 % of control
O=C1OCC/C1=C\c1cccc2ccccc12,T/C,[6],102 % of control
same,T/C,[7],96 % of control
same,T/C,[8],97 % of control
O=S(=O)(Cl)c1cccc2c(S(=O)(=O)Cl)cccc12,T/C,"endpoint: mean survival time, dose: 20.0 mg/kg/injection, schedule: Q04DX003 (ip), vehicle: Klucel (hydroxypropylcellulose) (HPC)",102 % of control
same,T/C,"endpoint: mean survival time, dose: 40.0 mg/kg/injection, schedule: Q04DX003 (ip), vehicle: Klucel (hydroxypropylcellulose) (HPC)",104 % of control
same,T/C,"endpoint: mean survival time, dose: 80.0 mg/kg/injection, schedule: Q04DX003 (ip), vehicle: Klucel (hydroxypropylcellulose) (HPC)",95 % of control
same,T/C,"endpoint: mean survival time, dose: 200.0 mg/kg/injection, schedule: Q04DX003 (ip), vehicle: Klucel (hydroxypropylcellulose) (HPC)",109 % of control
same,T/C,"endpoint: mean survival time, dose: 400.0 mg/kg/injection, schedule: Q04DX003 (ip), vehicle: Klucel (hydroxypropylcellulose) (HPC)",122 % of control
CC1(C)CCCC2(C)C1C(=O)C=CC2(O)CCc1ccoc1.CC12CCc3ccoc3C1CCC1(C(=O)O)C(CO)=CCCC12.[Ag] (stereo not drawn),T/C,"endpoint: mean survival time, dose: 75.0 mg/kg/injection, schedule: Q04DX002 (ip), vehicle: other",103 % of control
same,T/C,"endpoint: mean survival time, dose: 150.0 mg/kg/injection, schedule: Q04DX002 (ip), vehicle: other",115 % of control
same,T/C,"endpoint: mean survival time, dose: 300.0 mg/kg/injection, schedule: Q04DX002 (ip), vehicle: other",107 % of control
CC(C)=C(c1ccccc1)c1c(N)ncnc1Cl,T/C,[4],97 % of control
same,T/C,[5],95 % of control
same,T/C,"endpoint: mean survival time, dose: 400.0 mg/kg/injection, schedule: Q01DX001 (ip), vehicle: saline",100 % of control
COc1ccc2[nH]cc(CN(C)C)c2c1,T/C,"endpoint: mean survival time, dose: 25.0 mg/kg/injection, schedule: Q01DX009 (ip), vehicle: saline with Tween-80",100 % of control
same,T/C,"endpoint: mean survival time, dose: 33.0 mg/kg/injection, schedule: Q01DX009 (ip), vehicle: saline with Tween-80",101 % of control
same,T/C,"endpoint: mean survival time, dose: 50.0 mg/kg/injection, schedule: Q01DX009 (ip), vehicle: saline with Tween-80",106 % of control
same,T/C,[9],105 % of control
same,T/C,[6],88 % of control
CC(=O)c1ccc(Cl)cc1Cl,T/C,"endpoint: mean survival time, dose: 25.0 mg/kg/injection, schedule: Q01DX001 (ip), vehicle: other",104 % of control
same,T/C,"endpoint: mean survival time, dose: 50.0 mg/kg/injection, schedule: Q01DX001 (ip), vehicle: other",102 % of control
same,T/C,"endpoint: mean survival time, dose: 100.0 mg/kg/injection, schedule: Q01DX001 (ip), vehicle: other",95 % of control
O=c1[nH]cnc2c1nc(Br)n2C1OC(CO)C(O)C1O (stereo not drawn),T/C,"endpoint: mean survival time, dose: 12.5 mg/kg/injection, schedule: Q01DX005 (ip), vehicle: Klucel (hydroxypropylcellulose) (HPC)",91 % of control
same,T/C,"endpoint: mean survival time, dose: 25.0 mg/kg/injection, schedule: Q01DX005 (ip), vehicle: Klucel (hydroxypropylcellulose) (HPC)",89 % of control
same,T/C,"endpoint: mean survival time, dose: 50.0 mg/kg/injection, schedule: Q01DX005 (ip), vehicle: Klucel (hydroxypropylcellulose) (HPC)",93 % of control
same,T/C,"endpoint: mean survival time, dose: 100.0 mg/kg/injection, schedule: Q01DX005 (ip), vehicle: Klucel (hydroxypropylcellulose) (HPC)",88 % of control
same,T/C,"endpoint: mean survival time, dose: 200.0 mg/kg/injection, schedule: Q01DX005 (ip), vehicle: Klucel (hydroxypropylcellulose) (HPC)",89 % of control
